Experiment [1] relates to TNF-α. Put plainly: LPS-stimulated whole bovine blood assay, MSD cytokine detection. Type of experiment: cell-based. The settings on record: Bos taurus, LPS-stimulated bovine whole blood; read-out: TNF-α (IC50 μM).
For experiment [2], the system named is IL-1β. The description is as above. Format: cell-based. Particulars: overstimulation of IL-1β, LPS-stimulated bovine whole blood.
Experiment [3] relates to IL-6. The description is as above. Format: cell-based. The settings on record: Bos taurus, LPS-stimulated bovine whole blood; read-out: IL-6 (IC50 μM). The source says:
In order to correlate RNA sequencing data to cytokine changes the whole blood assay was utilized. […] The enhancement result represents an overall stimulation of cytokine levels due to cellular stress or potential toxicity with increasing concentrations of the compound, representing a typical bell shape response curve for immunomodulatory activity.

Experiment [4] deals with P. multocida 46572. Put plainly: In vivo mouse lung infection challenge model (murine efficacy). Details: species or system CD-1 female mice. The settings on record: 20 mg/kg subcutaneous, P. multocida challenge; harmonized against the comparative vehicle survival rate. The essentials:
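CD-1 female mice challenged intranasally with P. multocida 46572 at mid-log phase (target 5×10^2 CFU/mouse). Compounds given subcutaneously at 20 mg/kg in buffered (~pH 5.4) propylene glycol/monothioglycerol/water. Mortality observed Days 1–10, analysed by generalized mixed model; survival harmonized against vehicle survival rate.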

The test system of experiment [5] is BRD pathogens, M. haemolytica and P. multocida. Put plainly: MIC screening panel of BRD pathogens (antibacterial / non-antibacterial). The settings on record: read-out: antibacterial / non-antibacterial (MIC for the BRD pathogens).
Experiment [6] relates to P. multocida. Put plainly: Murine P. multocida intranasal challenge study with lung tissue RNA sequence analysis. Format: in vivo, mice. The settings on record: subcutaneous 18 hours after challenge (5×10^3 CFU/mouse): tulathromycin 16 mg/kg, M9 32 mg/kg, ceftiofur 9 mg/kg; placebo 0%. The method, then: In one murine P. multocida intranasal challenge study, mice were administered tulathromycin (16 mg/kg; T02), M9 (32 mg/kg; T03), or ceftiofur (9 mg/kg; T04) by subcutaneous injection 18 hours after bacterial challenge (5×10^3 CFU/mouse) for lung tissue RNA sequence analysis. Survival at Day 7 was about 80%, 50%, and 90% for T02, T03, and T04, respectively, compared to placebo at 0%. Differential gene expression from total lung tissue RNA sequence analysis indicated at least 226 unique genes were up or down regulated (with significance) for T03. Output from ingenuity pathway analysis of these unique genes predicted major upstream regulators of the involved pathways. Data was analyzed based on the number of genes being modulated in the same direction that were associated with a given upstream regulator. An activation z-score of 2 or greater is considered significant and the direction change is indicated by +(activated) or − (inhibited). The top 5 pathways included: IL-9 signaling, glucocorticoid receptor signaling, prolactin signaling, JAK STAT signaling, and IL-17 signaling. The top 6 upstream regulators (activation z-score) included: lipopolysaccharide (−6.725), TNF (−4.669), IFNG (−5.759), IL-1β (−5.947), STAT1 (−2.787), and poly rl:rC-RNA (−5.289). Even though this study was run in the murine model, the top upstream regulators identified as being modulated by M9 include an almost ubiquitous overlap with the pathways identified in the natural disease study as being key mediators in BRD, and therefore is modulating highly relevant pathways in BRD pathobiology.

In experiment [7] the test system is M. haemolytica. Put plainly: In-vitro MIC model (CLSI broth micro-dilution). On the technique in general: Dilution methods test growth across graded concentrations, often in twofold steps.
For experiment [8], the system named is P. multocida. Put plainly: In-vitro MIC model (CLSI broth micro-dilution).
Experiment [9] concerns E. coli. Put plainly: In-vitro MIC model (CLSI broth micro-dilution). Particulars: Escherichia coli, ATCC25922, read-out: Comparative MIC's, E. coli ATCC 25922.
The test system of experiment [10] is IL-6. Put plainly: Plasma IL-6 biomarker in bovine M. haemolytica challenge. The settings on record: bovine, in vivo.
Experiment [11] concerns H. somni. Put plainly: In-vitro MIC model (CLSI broth micro-dilution).
[12] abbreviates: M. haemolytica (116) lung isolates at necropsy, natural BRD study.
[13] abbreviates: P. multocida (33) lung isolates at necropsy, natural BRD study.
[14] abbreviates: H. somni (25) lung isolates at necropsy, natural BRD study.

Converted amounts (≈) assume the structure as drawn. Like-named read-outs stand apart in the source and are kept apart here. A value given as a limit tells only on which side of the number the result lay.

Turning to `CCCNC[C@]1(O)[C@H](C)O[C@@H](O[C@H]2[C@H](C)[C@@H](O[C@@H]3O[C@H](C)C[C@H](N(Cc4ccc(OC)cc4)C(=O)N(C)c4ccccc4)[C@H]3O)[C@](C)(O)C[C@@H](C)CN[C@H](C)[C@@H](O)[C@](C)(O)[C@@H](CC)OC(=O)[C@@H]2C)C[C@@]1(C)OC` [Example H-60, 1-((2S,3R,4S,6R)-2-(((2R,3S,4R,5R,8R,10R,11R,12S,13S,14R)-2-ethyl-3,4,10-trihydroxy-13-(((2R,4R,5S,6S)-5-hydroxy-4-methoxy-4,6-dimethyl-5-((propylamino)methyl)tetrahydro-2H-pyran-2-yl)oxy)-3,5,8,10,12,14-hexamethyl-15-oxo-1-oxa-6-azacyclopentadecan-11-yl)oxy)-3-hydroxy-6-methyltetrahydro-2H-pyran-4-yl)-1-(4-methoxybenzyl)-3-methyl-3-phenylurea], the IC50 in experiment [1] turned out to be 5 µM; in [3], 7 µM. Moreover, the “IL-1β OS of LPS” value in experiment [2] amounted to 3 µM. Moreover, in experiment [4], the “Mouse Murine Percent Survival” value was 72%. Also, in experiment [5], the MIC is > 64 µg/mL.
In the same order, the values of `CCCNC[C@]1(O)[C@H](C)O[C@@H](O[C@H]2[C@H](C)[C@@H](O[C@@H]3O[C@H](C)C[C@H](N(C)C(=O)N(C)c4ccc(C(F)(F)F)cc4)[C@H]3O)[C@](C)(O)C[C@@H](C)CN(C)[C@H](C)[C@@H](O)[C@](C)(O)[C@@H](CC)OC(=O)[C@@H]2C)C[C@@]1(C)OC` [Example H-100, 1-((2S,3R,4S,6R)-2-(((2R,3S,4R,5R,8R,10R,11R,12S,13S,14R)-2-ethyl-3,4,10-trihydroxy-13-(((2R,4R,5S,6S)-5-hydroxy-4-methoxy-4,6-dimethyl-5-((propylamino)methyl)tetrahydro-2H-pyran-2-yl)oxy)-3,5,6,8,10,12,14-heptamethyl-15-oxo-1-oxa-6-azacyclopentadecan-11-yl)oxy)-3-hydroxy-6-methyltetrahydro-2H-pyran-4-yl)-1,3-dimethyl-3-(4-(trifluoromethyl)phenyl)urea] are 6 µM, 10 µM, 16 µM, 19% and > 64 µg/mL.
In the case of `CC[C@H]1OC(=O)[C@H](C)[C@@H](O[C@H]2C[C@@](C)(OC)[C@](O)(CN3CC(N4CCOCC4)C3)[C@H](C)O2)[C@H](C)[C@@H](O[C@@H]2O[C@H](C)C[C@H](N(C)C(=O)N(C)c3ccccc3)[C@H]2O)[C@](C)(O)C[C@@H](C)CN[C@H](C)[C@@H](O)[C@]1(C)O` [Example J-4, 1-((2S,3R,4S,6R)-2-(((2R,3S,4R,5R,8R,10R,11R,12S,13S,14R)-2-ethyl-3,4,10-trihydroxy-13-(((2R,4R,5S,6S)-5-hydroxy-4-methoxy-4,6-dimethyl-5-((3-morpholinoazetidin-1-yl)methyl)tetrahydro-2H-pyran-2-yl)oxy)-3,5,8,10,12,14-hexamethyl-15-oxo-1-oxa-6-azacyclopentadecan-11-yl)oxy)-3-hydroxy-6-methyltetrahydro-2H-pyran-4-yl)-1,3-dimethyl-3-phenylurea], the figures for the IC50 in experiment [1] and in [3] were 7 µM and 3 µM, respectively. In addition, the “IL-1β OS of LPS” value in [2] is 1 µM. Besides, in experiment [4], the “Mouse Murine Percent Survival” value is 5%. For the same compound, in experiment [5], the MIC was > 64 µg/mL.
Regarding `CCCNC[C@]1(O)[C@H](C)O[C@@H](O[C@H]2[C@H](C)[C@@H](O[C@@H]3O[C@H](C)C[C@H](N(C)C)[C@H]3O)[C@](C)(O)C[C@@H](C)CN[C@H](C)[C@@H](O)[C@](C)(O)[C@@H](CC)OC(=O)[C@@H]2C)C[C@@]1(C)OC` [Tulathromycin, (2R,3S,4R,5R,8R,10R,11R,12S,13S,14R)-11-(((2S,3R,4S,6R)-4-(dimethylamino)-3-hydroxy-6-methyltetrahydro-2H-pyran-2-yl)oxy)-2-ethyl-3,4,10-trihydroxy-13-(((2R,4R,5S,6S)-5-hydroxy-4-methoxy-4,6-dimethyl-5-((propylamino)methyl)tetrahydro-2H-pyran-2-yl)oxy)-3,5,8,10,12,14-hexamethyl-1-oxa-6-azacyclopentadecan-15-one], in experiment [6], the “Survival at Day 7” value was “about 80%”. The MIC was determined as 1 µg/mL (≈ 1.24 µM) in experiment [7] (Mannheimia haemolytica, ATCC33396, read-out: Comparative MIC's, M. haemolytica ATCC 33396); 2 µg/mL (≈ 2.48 µM) in [7] (Mannheimia haemolytica, read-out: Comparative MIC's, M. haemolytica 12726); 1 µg/mL (≈ 1.24 µM) in experiment [7] (Mannheimia haemolytica, read-out: Comparative MIC's, M. haemolytica 46571*); 1 µg/mL (≈ 1.24 µM) in [8] (Pasteurella multocida, ATCC43137, read-out: Comparative MIC's, P. multocida ATCC 43137); 2 µg/mL (≈ 2.48 µM) in experiment [9]. For the same compound, in [10], the “IL-6 levels (plasma) in bovine M. haemolytica challenge” value was “significantly reduced”.
`CO/N=C(\C(=O)N[C@@H]1C(=O)N2C(C(=O)O)=C(CSC(=O)c3ccco3)CS[C@H]12)c1csc(N)n1` [ceftiofur]: in experiment [6], the “Survival at Day 7” value is recorded as ~90%.
As to `CCN1CCN(c2cc3c(cc2F)c(=O)c(C(=O)O)cn3C2CC2)CC1` [enrofloxacin], the MIC in [11] (Histophilus somni) was 0.06 to 1 µg/mL (≈ 0.167 to 2.78 µM).
In experiment [11] (Histophilus somni), `CS(=O)(=O)c1ccc([C@@H](O)[C@@H](CF)NC(=O)C(Cl)Cl)cc1` [florfenicol] displayed an MIC of 0.12 to 2 µg/mL (≈ 0.335 to 5.58 µM).
Take `CCCN1C[C@H](C)[C@@H](O)[C@](C)(O)[C@@H](CC)OC(=O)[C@H](C)[C@@H](O[C@H]2C[C@@](C)(OC)[C@@H](O)[C@H](C)O2)[C@H](C)[C@@H](O[C@@H]2O[C@H](C)C[C@H](N(C)C)[C@H]2O)[C@](C)(O)C[C@H]1C` [gamithromycin (Zactran)]: the MIC50 came to 1 µg/mL (≈ 1.29 µM) in [7] (setting [12]), 1 µg/mL (≈ 1.29 µM) in experiment [8] (setting [13]) and 0.25 µg/mL (≈ 0.322 µM) in experiment [11] (setting [14]). Besides, the MIC90 in experiment [7] (setting [12]) was >64 µg/mL; in experiment [8] (setting [13]) it was >64 µg/mL; in [11] (setting [14]), 2 µg/mL (≈ 2.57 µM). For the same compound, in experiment [11] (setting [14]), the “MIC Range” value is 0.12 to 2 µg/mL.
As to `CCCN1C[C@H](C)[C@@H](O)[C@](C)(O)[C@@H](CC)OC(=O)[C@H](C)[C@@H](O[C@H]2C[C@@](C)(OC)[C@@H](O)[C@H](C)O2)[C@H](C)[C@@H](O[C@@H]2O[C@H](C)C[C@H](N(C)C)[C@H]2O)[C@](C)(O)C[C@H]1C` [gamithromycin], the results for the MIC in experiment [7] (25 different strains of M. haemolytica), in experiment [8] (25 different strains of P. multocida) and in [11] (H. somni (31 strains)) were 0.5 to 1 µg/mL, 1 to 2 µg/mL and 0.25 to 8 µg/mL, respectively.

For orientation: IC50 means the midpoint of a concentration-inhibition curve. One may read the MIC50 as an inhibitory concentration at the 50% level, which refers to growth in some studies and to a panel of isolates in others. The low end stands for greater potency, the high end for weaker potency. By MIC90 is commonly meant an inhibitory concentration at the 90% level, which refers to growth in some studies and to a panel of isolates in others.

(Values after US12295936B2, “Immunomodulating urea azalides” (Zoetis Services LLC, priority 2020, dated 2025).)
